The record followed here is patent publication US9650395B2, “Antibacterial compounds and methods for use” (PTC Therapeutics, Inc., priority 2011, dated 2017).

What is called MIC is the smallest concentration in the dilution series that meets the test's criterion for growth inhibition.

Assay [1] deals with control Gram-negative E. coli 25922 strain. Briefly: Antibacterial activity, microbroth dilution MIC, E. coli 25922. Particulars: Escherichia coli; E. coli 25922, microbroth dilution; read-out: MIC, 25922. It is filed as cell-based, Escherichia coli. In general terms: Dilution methods test growth across graded concentrations, often in twofold steps.
Assay [2] relates to quinolone resistant E. coli LZ3111. The assay can be described thus: Antibacterial activity, MIC, quinolone resistant E. coli LZ3111. The assay is classed as cell-based, Escherichia coli. Particulars: Escherichia coli, read-out: MIC, LZ3111. An excerpt:
The antibacterial activity from a microbroth dilution method may be presented as the minimum inhibitory concentration (MIC in […]). The MIC value is the lowest concentration of a drug which prevents macroscopically visible bacterial growth under test conditions.
Mutations in these regions are known to confer a high level resistance to the quinolone class of antibiotics.

The test system of assay [3] is Gram-positive Staphylococcus aureus (S. aureus) 29213. Briefly: Antibacterial activity, microbroth dilution MIC, S. aureus 29213. It is filed as cell-based. Particulars: Staphylococcus aureus; S. aureus 29213, microbroth dilution; read-out: MIC, 29213.
The subject of assay [4] is super sensitive Gram-negative Escherichia coli (E. coli) BAS849. The assay can be described thus: Antibacterial activity, microbroth dilution MIC, E. coli BAS849. It is filed as cell-based. Particulars: Escherichia coli, read-out: MIC, BAS849.
Setting [5] is: E. coli BAS849, microbroth dilution.

In brackets after ≈: the same amount, converted by molar mass. Where two headings read alike, the source gives them in different places.

Consider `CCc1cc(C(=O)O)c(=O)[nH]c1-c1ccc(N2CCCC2)cc1OC` [Cpd 50, 5-ethyl-6-[2-methoxy-4-(pyrrolidin-1-yl)phenyl]-2-oxo-1,2-dihydropyridine-3-carboxylic acid], for which the MIC in assay [1], in assay [2], in assay [3] and in assay [4] (setting [5]) was 12.5 to 150 µg/mL (≈ 36.5 to 438 µM) in each case.
For the compound `CCc1c(-c2ccc(N(C)C)cc2F)[nH]c(=O)c(C(=O)O)c1O` [Cpd 55, 6-[4-(dimethylamino)-2-fluorophenyl]-5-ethyl-4-hydroxy-2-oxo-1,2-dihydropyridine-3-carboxylic acid], the minimal inhibitory concentration (MIC) in assay [1] was 12.5 to 150 µg/mL (≈ 39 to 468 µM); in assay [2] it was 12.5 to 150 µg/mL (≈ 39 to 468 µM); in assay [3], 3.5 to 12.5 µg/mL (≈ 10.9 to 39 µM); in assay [4] (setting [5]), below 1 µg/mL.
`CCc1cc(C(=O)O)c(=O)[nH]c1-c1ccc(N2CCCCC2)c(OC)c1` [Cpd 68, 5-ethyl-6-[3-methoxy-4-(piperidin-1-yl)phenyl]-2-oxo-1,2-dihydropyridine-3-carboxylic acid]: the MIC in assay [1], in assay [2], in assay [3] and in assay [4] (setting [5]) was 12.5 to 150 µg/mL (≈ 35.1 to 421 µM) each time.
`CCc1c(-c2ccc(N3CCOCC3)cn2)[nH]c(=O)c(C(=O)O)c1O` [Cpd 112, 5-ethyl-4-hydroxy-6-(5-morpholinopyridin-2-yl)-2-oxo-1,2-dihydropyridine-3-carboxylic acid]: the MIC in assay [1] is 12.5 to 150 µg/mL (≈ 36.2 to 434 µM); in assay [2], 12.5 to 150 µg/mL (≈ 36.2 to 434 µM); in assay [3] it was 12.5 to 150 µg/mL (≈ 36.2 to 434 µM); in assay [4] (setting [5]) it was below 1 µg/mL.
Regarding `CCc1c(-c2ccc(N3CCNCC3)cn2)[nH]c(=O)c(C(=O)O)c1O` [Cpd 113, 5-ethyl-4-hydroxy-2-oxo-6-[5-(piperazin-1-yl)pyridin-2-yl]-1,2-dihydropyridine-3-carboxylic acid], the MIC was in the range of 3.5 to 12.5 µg/mL (≈ 10.2 to 36.3 µM) in assay [1], 12.5 to 150 µg/mL (≈ 36.3 to 436 µM) in assay [2], 12.5 to 150 µg/mL (≈ 36.3 to 436 µM) in assay [3] and 3.5 to 12.5 µg/mL (≈ 10.2 to 36.3 µM) in assay [4] (setting [5]).
In the case of `CCc1cc(C(=O)O)c(=O)[nH]c1-c1ccc(N2C(=O)CCC2C)cc1` (stereo not shown) [Cpd 116, 5-ethyl-6-[4-(2-methyl-5-oxopyrrolidin-1-yl)phenyl]-2-oxo-1,2-dihydropyridine-3-carboxylic acid], the MIC in assay [1], in assay [2], in assay [3] and in assay [4] (setting [5]) was 12.5 to 150 µg/mL (≈ 36.7 to 441 µM) throughout.
For the compound `CCc1cc(C(=O)O)c(=O)[nH]c1-c1ccc(N2CC[C@H](O)C2=O)cc1` [Cpd 117, 5-ethyl-6-{4-[(3S)-3-hydroxy-2-oxopyrrolidin-1-yl]phenyl}-2-oxo-1,2-dihydropyridine-3-carboxylic acid], the MIC in assay [1], in assay [2], in assay [3] and in assay [4] (setting [5]) was 12.5 to 150 µg/mL (≈ 36.5 to 438 µM) throughout.
Consider `CCc1cc(C(=O)O)c(=O)[nH]c1-c1ccc(N2C[C@@H](N)[C@@H](OC)C2)cc1.Cl` [Cpd 135, 6-{4-[(3R,4S)-3-amino-4-methoxypyrrolidin-1-yl]phenyl}-5-ethyl-2-oxo-1,2-dihydropyridine-3-carboxylic acid hydrochloride], for which the minimal inhibitory concentration (MIC) is 12.5 to 150 µg/mL in assay [1], 12.5 to 150 µg/mL in assay [2], 12.5 to 150 µg/mL in assay [3] and below 1 µg/mL in assay [4] (setting [5]).
On to `CCc1cc(C(=O)O)c(=O)[nH]c1-c1ccc(N2C[C@@H](N)[C@@H](O)C2)cc1.O=C(O)C(F)(F)F` [Cpd 136, 6-{4-[(3R,4S)-3-amino-4-hydroxypyrrolidin-1-yl]phenyl}-5-ethyl-2-oxo-1,2-dihydropyridine-3-carboxylic acid trifluoroacetate], for which the MIC in assay [1] lay within 12.5 to 150 µg/mL; in assay [2], 12.5 to 150 µg/mL; in assay [3] it was 12.5 to 150 µg/mL; in assay [4] it was 1 to 3.5 µg/mL.
In the case of `CCc1cc(C(=O)O)c(=O)[nH]c1-c1ccc(NCCN(C)C)cc1` [Cpd 159, 6-(4-{[2-(dimethylamino)ethyl]amino}phenyl)-5-ethyl-2-oxo-1,2-dihydropyridine-3-carboxylic acid], the MIC in assay [1] is 12.5 to 150 µg/mL (≈ 37.9 to 455 µM); in assay [2] it was 12.5 to 150 µg/mL (≈ 37.9 to 455 µM); in assay [3], 12.5 to 150 µg/mL (≈ 37.9 to 455 µM); in assay [4] (setting [5]) it was 1 to 3.5 µg/mL (≈ 3.04 to 10.6 µM).
Turning to `CC(C)c1cc(C(=O)O)c(=O)[nH]c1-c1ccc(N(C)CCN(C)C)cc1` [Cpd 165, 6-(4-{[2-(dimethylamino)ethyl](methyl)amino}phenyl)-2-oxo-5-(propan-2-yl)-1,2-dihydropyridine-3-carboxylic acid], the minimal inhibitory concentration (MIC) in assay [1] is 12.5 to 150 µg/mL (≈ 35 to 420 µM); in assay [2], 12.5 to 150 µg/mL (≈ 35 to 420 µM); in assay [3], 12.5 to 150 µg/mL (≈ 35 to 420 µM); in assay [4] (setting [5]) it was 1 to 3.5 µg/mL (≈ 2.8 to 9.79 µM).
`CCc1cc(C(=O)O)c(=O)[nH]c1-c1ccc(N2CCC(C)(N)C2)cc1.O=C(O)C(F)(F)F` (stereo not shown) [Cpd 166, 6-[4-(3-amino-3-methylpyrrolidin-1-yl)phenyl]-5-ethyl-2-oxo-1,2-dihydropyridine-3-carboxylic acid trifluoroacetate]: the minimal inhibitory concentration (MIC) in assay [1] was 3.5 to 12.5 µg/mL; in assay [2], 12.5 to 150 µg/mL; in assay [3], 12.5 to 150 µg/mL; in assay [4], below 1 µg/mL.
For the compound `CCc1cc(C(=O)O)c(=O)[nH]c1-c1ccc(N2CC(NC(=O)N(C)CC(=O)O)C2)cc1` [Cpd 167, 6-[4-(3-{[(carboxymethyl)(methyl)carbamoyl]amino}azetidin-1-yl)phenyl]-5-ethyl-2-oxo-1,2-dihydropyridine-3-carboxylic acid], the MIC in assay [1] was in the range of 12.5 to 150 µg/mL (≈ 29.2 to 350 µM); in assay [2], 12.5 to 150 µg/mL (≈ 29.2 to 350 µM); in assay [3], 12.5 to 150 µg/mL (≈ 29.2 to 350 µM); in assay [4] (setting [5]) it was 1 to 3.5 µg/mL (≈ 2.33 to 8.17 µM).
For the compound `CCc1cc(C(=O)O)c(=O)[nH]c1-c1ccc(N2CC(n3nnc(C)n3)C2)cc1` [Cpd 168, 5-ethyl-6-{4-[3-(5-methyl-2H-tetrazol-2-yl)azetidin-1-yl]phenyl}-2-oxo-1,2-dihydropyridine-3-carboxylic acid], the minimum inhibitory concentration (MIC) in assay [1] is 12.5 to 150 µg/mL (≈ 32.9 to 394 µM); in assay [2], 12.5 to 150 µg/mL (≈ 32.9 to 394 µM); in assay [3], 12.5 to 150 µg/mL (≈ 32.9 to 394 µM); in assay [4] (setting [5]) it was below 1 µg/mL.
For `CCc1cc(C(=O)O)c(=O)[nH]c1-c1ccc(N2CC3CC3(N)C2)cc1.Cl` (stereo not shown) [Cpd 169, 6-[4-(1-amino-3-azabicyclo[3.1.0]hex-3-yl)phenyl]-5-ethyl-2-oxo-1,2-dihydropyridine-3-carboxylic acid hydrochloride], the MIC in assay [1] is 1 to 3.5 µg/mL; in assay [2], 12.5 to 150 µg/mL; in assay [3] it was 12.5 to 150 µg/mL; in assay [4] (setting [5]), below 1 µg/mL.
Take `CCc1cc(C(=O)O)c(=O)[nH]c1-c1ccc(N2CCC(N3CCCC3)C2)cc1` (stereo not shown) [Cpd 175, 6-[4-(1,3′-bipyrrolidin-1′-yl)phenyl]-5-ethyl-2-oxo-1,2-dihydropyridine-3-carboxylic acid]: the MIC in assay [1] is 1 to 3.5 µg/mL (≈ 2.62 to 9.17 µM); in assay [2], 12.5 to 150 µg/mL (≈ 32.8 to 393 µM); in assay [3], 12.5 to 150 µg/mL (≈ 32.8 to 393 µM); in assay [4] (setting [5]), below 1 µg/mL.
As for `CCc1cc(C(=O)O)c(=O)[nH]c1-c1ccc(N2CCC(CNC)C2)cc1.Cl` (stereo not shown) [Cpd 184, 5-ethyl-6-(4-{3-[(methylamino)methyl]pyrrolidin-1-yl}phenyl)-2-oxo-1,2-dihydropyridine-3-carboxylic acid hydrochloride], the MIC in assay [1] lay in the range of 12.5 to 150 µg/mL; in assay [2] it was 12.5 to 150 µg/mL; in assay [3] it was 12.5 to 150 µg/mL; in assay [4] (setting [5]), 1 to 3.5 µg/mL.
In the case of `CCc1cc(C(=O)O)c(=O)[nH]c1-c1ccc(N2CCC(CN)C2)cc1.O=C(O)C(F)(F)F` (stereo not shown) [Cpd 188, 6-{4-[3-(aminomethyl)pyrrolidin-1-yl]phenyl}-5-ethyl-2-oxo-1,2-dihydropyridine-3-carboxylic acid trifluoroacetate], the MIC in assay [1] is 3.5 to 12.5 µg/mL; in assay [2], 12.5 to 150 µg/mL; in assay [3] it was 12.5 to 150 µg/mL; in assay [4] it was below 1 µg/mL.
On to `CCc1cc(C(=O)O)c(=O)[nH]c1-c1ccc(N2C[C@H]3CCN[C@H]3C2)cc1.O=C(O)C(F)(F)F` [Cpd 190, 5-ethyl-6-{4-[(3aR,6aR)-hexahydropyrrolo[3,4-b]pyrrol-5(1H)-yl]phenyl}-2-oxo-1,2-dihydropyridine-3-carboxylic acid trifluoroacetate], for which the MIC is 12.5 to 150 µg/mL in assay [1], 12.5 to 150 µg/mL in assay [2], 12.5 to 150 µg/mL in assay [3] and 1 to 3.5 µg/mL in assay [4].
On to `CCc1cc(C(=O)O)c(=O)[nH]c1-c1ccc(N2CCC(CN3CCCC3)C2)cc1` (stereo not shown) [Cpd 191, 5-ethyl-2-oxo-6-{4-[3-(pyrrolidin-1-ylmethyl)pyrrolidin-1-yl]phenyl}-1,2-dihydropyridine-3-carboxylic acid], for which the MIC in assay [1] was 1 to 3.5 µg/mL (≈ 2.53 to 8.85 µM); in assay [2], 12.5 to 150 µg/mL (≈ 31.6 to 379 µM); in assay [3], 12.5 to 150 µg/mL (≈ 31.6 to 379 µM); in assay [4] (setting [5]) it was below 1 µg/mL.
Turning to `CCc1cc(C(=O)O)c(=O)[nH]c1-c1ccc(N2C[C@H]3CCC[C@@H](N(C)C)[C@H]3C2)cc1.Cl` [Cpd 193, 6-{4-[(3aR,4R,7aS)-4-(dimethylamino)octahydro-2H-isoindol-2-yl]phenyl}-5-ethyl-2-oxo-1,2-dihydropyridine-3-carboxylic acid hydrochloride], the MIC in assay [1] is 12.5 to 150 µg/mL; in assay [2], 12.5 to 150 µg/mL; in assay [3], 12.5 to 150 µg/mL; in assay [4] (setting [5]) it was 1 to 3.5 µg/mL.
Take `CCc1cc(C(=O)O)c(=O)[nH]c1-c1ccc(N2C[C@H]3CCC[C@@H](N(C)Cc4ccccc4)[C@H]3C2)cc1.O=C(O)C(F)(F)F` [Cpd 194, 6-(4-{(3aR,4R,7aS)-4-[benzyl(methyl)amino]octahydro-2H-isoindol-2-yl}phenyl)-5-ethyl-2-oxo-1,2-dihydropyridine-3-carboxylic acid trifluoroacetate]: the minimum inhibitory concentration (MIC) lay within 12.5 to 150 µg/mL in assay [1], 12.5 to 150 µg/mL in assay [2], 3.5 to 12.5 µg/mL in assay [3] and 1 to 3.5 µg/mL in assay [4].
